# Data from patent US12258310B2, “Solid peroxyalphahydroxycarboxylic acid generation compositions and the use thereof” (ECOLAB USA INC., priority 2021, dated 2025).
# Where “and” joins values, the source holds several entries; their conditions need not be identical. Equal values may be shown once.
# Assays:
# [1] = Physical property (vapor pressure, odor) of alphacarboxylic acids and peroxyalphacarboxylic acids; type: physicochemical
# [2] = tested on: Salmonella ser. Heidelberg, Newport and Braenderup (modified to be resistant to 50 μg/mL nalidixic acid); assay: Antimicrobial efficacy on chicken carcass, 15 second dip; type: cell-based; conditions: for Avg Log10 Survivors / CFU/Surface (CFU/ml × 50) / Log10 Reduction / Log10 Survivors: 15 second dip, drain time 30 minutes, room temperature
# Experimental: Antimicrobial Efficacy of Peroxylactic Acid. The antimicrobial efficacy of peroxylactic acid generated from the solid peroxyalphahydroxycarboxylic acid forming composition of Table 4 was evaluated on chicken carcass against Salmonella in comparison to peroxyacetic acid (PAA). The molecular weight of PLA is 106, and PAA 76, therefore the molar equivalent base of the peracids is 500 ppm PLA equals to 359 ppm PAA.
# [3] = tested on: Listeria monocytogenes ATCC 49594; conditions: known; cited from earlier work
# [4] = cited from earlier work
# [5] = PLA generation kinetics and pH from solid pellet of Table 4 dissolved in DI water; type: physicochemical
# Experimental: Following the successful perhydrolysis reactions of the lactide and glycolide esters, the solid composition shown in Table 4 using a lactide precursor was used to generate peroxylactic acid according to the same reaction scheme in FIG. 1. The lactide precursor was formulated into a solid pellet with citric acid and sodium percarbonate and the solid peroxyalphahydroxycarboxylic acid forming composition was added to water for the perhydrolysis reaction to generate peroxylactic acid (PLA). Beneficially, the citric acid acts as both a buffer and a dispersant or disintegrating reagent to provide effervescence to dissolve the solid composition more quickly into water and initiate the reaction of forming PLA. The reaction kinetics were evaluated by dissolving approximately 2.5 gram pellet as shown in Table 4 in 500 mL DI water to measure PLA generation and pH over time.
# The PLA generation were measured on two occasions. […] The initial testing point of 10 minutes provides time for the pellet to dissolve in the water so that PLA generation can begin.
# The stability of the tablets is also quantifiable by the chemistry of the reagents as they are capable of self-reacting. As a result, tablet (or solid) stability can also be assessed by the ability or capacity of the tablet to generate PLA after storage as another quantifiable mechanism to confirm stability. This is shown in Example 1, Table 6 compared to Table 5 is a direct comparison of PLA generation profiles of the tablets after 9 months of storage. […] In some embodiments it is preferred that at least about 50% or preferably at least about 80% of the PLA (or peroxyalphahydroxycarboxylic acid) generation is maintained.
# [6] = tested on: Escherichia coli ATCC 11229; assay: US EPA food contact suspension test (AOAC 960.09); type: cell-based; conditions: 30 seconds, 500 ppm synthetic hard water, ambient (18-20° C.)
# Experimental: (§1) Antimicrobial Efficacy of Peroxylactic Acid. The antimicrobial efficacy of peroxylactic acid generated from the solid peroxyalphahydroxycarboxylic acid forming composition of Table 4 was evaluated following the US EPA food contact suspension test protocol (AOAC 960.09) against Staphylococcus aureus and Escherichia coli according to the conditions set forth in Table 7.
# [7] = tested on: Staphylococcus aureus ATCC 6538; assay: US EPA food contact suspension test (AOAC 960.09); type: cell-based; conditions: 30 seconds, 500 ppm synthetic hard water, ambient (18-20° C.)
# Experimental: as §1
# [8] = tested on: Listeria monocytogenes ATCC 49594; assay: US EPA food contact suspension test (AOAC 960.09), FIG. 3; type: cell-based; conditions: 100 ppm, 30 seconds
# Experimental: (§2) Additional Antimicrobial Efficacy of Peroxylactic Acid. Additional antimicrobial efficacy of generated peroxylactic acid was evaluated following the US EPA food contact suspension test protocol (AOAC 960.09) against Salmonella, E. coli, Campylobacter and Listeria according to the conditions set forth in Table 12.
# [9] = tested on: Salmonella, E. coli, Campylobacter and Listeria; assay: as above; type: cell-based; conditions: as low as 25 ppm, 30 seconds
# Experimental: as §2
# [10] = approx. 2.5 gram pellet of Table 4 in 500 mL DI water, first PLA generation, 10 min
# [11] = approx. 2.5 gram pellet of Table 4 in 500 mL DI water, first PLA generation, 30 min
# [12] = approx. 2.5 gram pellet of Table 4 in 500 mL DI water, first PLA generation, 60 min
# [13] = approx. 2.5 gram pellet of Table 4 in 500 mL DI water, first PLA generation, 90 min
# [14] = approx. 2.5 gram pellet of Table 4 in 500 mL DI water, first PLA generation, 120 min
# [15] = approx. 2.5 gram pellet of Table 4 in 500 mL DI water, first PLA generation, 150 min
# [16] = approx. 2.5 gram pellet of Table 4 in 500 mL DI water, first PLA generation, 180 min
# [17] = approx. 2.5 gram pellet of Table 4 in 500 mL DI water, first PLA generation, 210 min
# [18] = approx. 2.5 gram pellet of Table 4 in 500 mL DI water, first PLA generation, 240 min
# [19] = same batch of tablets stored under ambient conditions for 9 months, 20 min
# [20] = same batch of tablets stored under ambient conditions for 9 months, 30 min
# [21] = same batch of tablets stored under ambient conditions for 9 months, 40 min
# [22] = same batch of tablets stored under ambient conditions for 9 months, 50 min
# [23] = same batch of tablets stored under ambient conditions for 9 months, 60 min
# [24] = same batch of tablets stored under ambient conditions for 9 months, 120 min
# [25] = same batch of tablets stored under ambient conditions for 9 months, 240 min
# [26] = same batch of tablets stored under ambient conditions for 9 months, 300 min
# [27] = same batch of tablets stored under ambient conditions for 9 months, 360 min
compound,measurement,setting,value
"CC(=O)OO [PAA, peroxyacetic acid, reference compound]",Odor,[1],Sharp pungent
same,Avg Log10 Survivors,[2]; 500 ppm,6.54 Log10
same,CFU/Surface (CFU/ml × 50),[2]; 500 ppm,4.35E+06 CFU/Surface and 2.35E+06 CFU/Surface and 3.95E+06 CFU/Surface
same,Log10 Reduction,[2]; 500 ppm,1.09 Log10
same,Log10 Survivors,[2]; 500 ppm,6.64 Log10 and 6.37 Log10 and 6.60 Log10
same,Concentration required for greater than 7 log reduction against Listeria,[3],at least 180 ppm
same,Vapor Pressure (20° C.),[4],2.06 KPa
O=C(O)CO [Glycolic acid],Odor,[1],Odorless
same,Vapor Pressure (20° C.),[4],0.003 KPa
CC(O)C(=O)O (stereo not shown) [Lactic Acid],Odor,[1],No irritative odor
same,Vapor Pressure (20° C.),[4],0.01 KPa
CC(=O)O [Acetic Acid],Odor,[1],Sour
same,Vapor Pressure (20° C.),[4],1.56 KPa
"CC(O)C(=O)OO (stereo not shown) [PLA, peroxylactic acid]",Odor,[1],Odorless
same,PLA (ppm),[5]; [10],130 ppm
same,pH,[5]; [10],6.06
same,PLA (ppm),[5]; [11],222 ppm
same,pH,[5]; [11],5.95
same,PLA (ppm),[5]; [12],236 ppm
same,pH,[5]; [12],5.64
same,PLA (ppm),[5]; [13],217 ppm
same,pH,[5]; [13],5.41
same,PLA (ppm),[5]; [14],202 ppm
same,pH,[5]; [14],5.23
same,PLA (ppm),[5]; [15],188 ppm
same,pH,[5]; [15],5.11
same,PLA (ppm),[5]; [16],170 ppm
same,pH,[5]; [16],5.01
same,PLA (ppm),[5]; [17],152 ppm
same,pH,[5]; [17],4.93
same,PLA (ppm),[5]; [18],146 ppm
same,pH,[5]; [18],4.87
same,PLA (ppm),"[5]; same batch of tablets stored under ambient conditions for 9 months, 10 min",122 ppm
same,PLA (ppm),[5]; [19],150 ppm
same,pH,[5]; [19],5.73
same,PLA (ppm),[5]; [20],170 ppm
same,pH,[5]; [20],5.69
same,PLA (ppm),[5]; [21],198 ppm
same,pH,[5]; [21],5.62
same,PLA (ppm),[5]; [22],198 ppm
same,pH,[5]; [22],5.58
same,PLA (ppm),[5]; [23],200 ppm
same,pH,[5]; [23],5.49
same,PLA (ppm),[5]; [24],179 ppm
same,pH,[5]; [24],5.25
same,PLA (ppm),"[5]; same batch of tablets stored under ambient conditions for 9 months, 180 min",160 ppm
same,PLA (ppm),[5]; [25],129 ppm
same,pH,[5]; [25],4.82
same,PLA (ppm),[5]; [26],102 ppm
same,pH,[5]; [26],4.74
same,PLA (ppm),[5]; [27],85 ppm
same,pH,[5]; [27],4.68
same,Average Log10 Growth,[6]; 25 ppm PLA,3.25 Log10
same,CFU/ml,[6]; 25 ppm PLA,1.49E+03 CFU/ml and 2.10E+03 CFU/ml
same,Log10 Growth,[6]; 25 ppm PLA,3.17 Log10 and 3.32 Log10
same,Log10 Reduction,[6]; 25 ppm PLA,4.64 Log10
same,Average Log10 Growth,[6]; 50 ppm PLA,<1.00 Log10
same,CFU/ml,[6]; 50 ppm PLA,<1.00E+01 CFU/ml
same,Log10 Growth,[6]; 50 ppm PLA,<1.00 Log10
same,Log10 Reduction,[6]; 50 ppm PLA,>6.89 Log10
same,Average Log10 Growth,[6]; 100 ppm PLA,<1.00 Log10
same,CFU/ml,[6]; 100 ppm PLA,<1.00E+01 CFU/ml
same,Log10 Growth,[6]; 100 ppm PLA,<1.00 Log10
same,Log10 Reduction,[6]; 100 ppm PLA,>6.89 Log10
same,Average Log10 Growth,[7]; 50 ppm PLA,>6.48 Log10
same,CFU/ml,[7]; 50 ppm PLA,>3.00E+06 CFU/ml
same,Log10 Growth,[7]; 50 ppm PLA,>6.48 Log10
same,Log10 Reduction,[7]; 50 ppm PLA,<1.32 Log10
same,Average Log10 Growth,[7]; 100 ppm PLA,5.22 Log10
same,CFU/ml,[7]; 100 ppm PLA,2.20E+05 CFU/ml and 1.24E+05 CFU/ml
same,Log10 Growth,[7]; 100 ppm PLA,5.34 Log10 and 5.09 Log10
same,Log10 Reduction,[7]; 100 ppm PLA,2.58 Log10
same,Average Log10 Growth,[7]; 150 ppm PLA,2.82 Log10
same,CFU/ml,[7]; 150 ppm PLA,9.20E+02 CFU/ml and 4.80E+02 CFU/ml
same,Log10 Growth,[7]; 150 ppm PLA,2.96 Log10 and 2.68 Log10
same,Log10 Reduction,[7]; 150 ppm PLA,4.98 Log10
same,Average Log10 Growth,[7]; 200 ppm PLA,<1.00 Log10
same,CFU/ml,[7]; 200 ppm PLA,<1.00E+01 CFU/ml
same,Log10 Growth,[7]; 200 ppm PLA,<1.00 Log10
same,Log10 Reduction,[7]; 200 ppm PLA,>6.80 Log10
same,Avg Log10 Survivors,[2]; 500 ppm,6.55 Log10
same,CFU/Surface (CFU/ml × 50),[2]; 500 ppm,2.90E+06 CFU/Surface and 5.45E+06 CFU/Surface
same,Log10 Reduction,[2]; 500 ppm,1.08 Log10
same,Log10 Survivors,[2]; 500 ppm,6.46 Log10 and 6.74 Log10
same,Micro efficacy (log reduction) compared to peroxyacetic acid,[2]; 1000 ppm,improved micro efficacy
same,Avg Log10 Survivors,[2]; 1000 ppm,6.16 Log10
same,CFU/Surface (CFU/ml × 50),[2]; 1000 ppm,1.60E+06 CFU/Surface and 1.85E+06 CFU/Surface and 1.05E+06 CFU/Surface
same,Log10 Reduction,[2]; 1000 ppm,1.47 Log10
same,Log10 Survivors,[2]; 1000 ppm,6.20 Log10 and 6.27 Log10 and 6.02 Log10
same,Avg Log10 Survivors,[2]; 2000 ppm,6.54 Log10
same,Log10 Reduction,[2]; 2000 ppm,1.09 Log10
same,Micro efficacy (log reduction) compared to peroxyacetic acid,[2]; varying concentrations,at least equivalent micro efficacy
same,log reduction against Listeria,[8],greater than 7 log
same,Efficacy against various microbes,[9],provides efficacy at low concentration doses
